# Earlier results in US20120015026A1, “PHARMACEUTICAL COMPOSITION CONTAINING A DRUG AND SIRNA” (priority 2009, published 2012).
# Key:
# [1] = organic solvents such as ethanol, ethylacetate, dichloromethane
structure (smiles),measurement,setting,value
"C/C(=C\c1csc(C)n1)[C@@H]1C[C@@H]2O[C@]2(C)CCC[C@H](C)[C@H](O)[C@@H](C)C(=O)C(C)(C)[C@@H](O)CC(=O)O1 [EPO906, epothilone B]",solubility in water,,< 0.1 µg/mL
same,solubility in organic solvents,[1],highly soluble
